Experimental data: US12458709B2, “Compositions and methods for imaging a cell” (NOVOCURE GMBH, priority 2019, dated 2025)

System: clathrin-dependent pathway or macro-pinocytosis pathway
Assay: Effect of endocytosis pathway inhibitors on BTNP accumulation in response to TTFields
Format: cell-based
Conditions: specific inhibitors of clathrin-dependent or macro-pinocytosis pathway

SMILES | effect on accumulation of BTNPs in cytoplasm in response to TTFields
C=C1[C@@H](C)[C@H]2[C@H](Cc3ccccc3)NC(=O)[C@]23[C@H](OC(C)=O)/C=C/[C@@](C)(O)C(=O)[C@@H](C)C/C=C/[C@H]3[C@@H]1O [cytochalasin D] | did not modulate
N=C(N)NC(=O)c1nc(Cl)c(N)nc1N [amiloride] | did not modulate
CN(C)CCCN1c2ccccc2Sc2ccc(Cl)cc21 [chlorpromazine] | did not modulate
